# Measured values taken from US6699862B1, “Indolyl-2-phenyl bisamidines useful as antiproliferative agents” (Pfizer Inc., priority 1999, dated 2004).
row,melting point [°C],Compound
1,> 250,COC(=O)c1cc(Cl)ccc1Cc1c(-c2ccc(C(=N)N)cc2)[nH]c2cc(C(=N)N)ccc12.Cl.Cl
2,> 250,Cl.Cl.N=C(N)c1ccc(-c2[nH]c3cc(C(=N)N)ccc3c2CC(=O)OCCOCc2ccccc2)cc1
3,> 300,CCOC(=O)Cc1c(-c2ccc(C3=NCCN3)cc2)[nH]c2cc(C3=NCCN3)ccc12.Cl.Cl
4,> 250,COCCOC(=O)Cc1c(-c2ccc(C(=N)N)cc2)[nH]c2cc(C(=N)N)ccc12.Cl.Cl
5,> 250,Cl.Cl.N=C(N)c1ccc(-c2[nH]c3cc(C(=N)N)ccc3c2NC(=O)CCC(=O)O)cc1
6,> 250,COC(=O)c1ccc(Cc2c(-c3ccc(C(=N)N)cc3)[nH]c3cc(C(=N)N)ccc23)cc1.Cl.Cl
7,> 250,CCOC(=O)CC(C)OC(=O)Cc1c(-c2ccc(C(=N)N)cc2)[nH]c2cc(C(=N)N)ccc12.Cl.Cl (centres unmarked)
8,> 250,Cl.Cl.N=C(N)c1ccc(-c2[nH]c3cc(C(=N)N)ccc3c2CC(=O)OCCCCCO)cc1
9,> 300,Cl.Cl.N=C(N)c1ccc(-c2cc3ccc(C(=N)N)cc3[nH]2)c(O)c1
10,> 250,COC(=O)C(CO)NCCc1c(-c2ccc(C(=N)N)cc2)[nH]c2cc(C(=N)N)ccc12.Cl.Cl (centres unmarked)
11,> 250,COC(=O)Cc1c(-c2ccc(C(=N)N)cc2O)[nH]c2cc(C(=N)N)ccc12.Cl.Cl
12,> 250,Cl.Cl.N=C(N)c1ccc(-c2[nH]c3cc(C(=N)N)ccc3c2CC(=O)OCCc2cccs2)cc1
13,> 250,COC(=O)CNCCc1c(-c2ccc(C(=N)N)cc2)[nH]c2cc(C(=N)N)ccc12.Cl.Cl
14,> 250,Cl.Cl.N=C(N)c1ccc(-c2[nH]c3cc(C(=N)N)ccc3c2CC(=O)OCc2ccccc2)cc1
15,> 250,CCCCS(=O)(=O)CCOC(=O)Cc1c(-c2ccc(C(=N)N)cc2)[nH]c2cc(C(=N)N)ccc12.Cl.Cl
16,> 270,CCCOC(=O)Cc1c(-c2ccc(C(=N)N)cc2)[nH]c2cc(C(=N)N)ccc12.Cl.Cl
17,> 250,COCCOCCOC(=O)Cc1c(-c2ccc(C(=N)N)cc2)[nH]c2cc(C(=N)N)ccc12.Cl.Cl
18,> 250,CCOC(=O)CNCCc1c(-c2ccc(C(=N)N)cc2)[nH]c2cc(C(=N)N)ccc12.Cl.Cl
19,> 250,Cl.Cl.N=C(N)c1ccc(-c2[nH]c3cc(C(=N)N)ccc3c2Cc2cccc(OCC(N)=O)c2)cc1
20,> 250,COC(=O)C=CCc1c(-c2ccc(C(=N)N)cc2)[nH]c2cc(C(=N)N)ccc12.Cl.Cl
21,> 250,Cl.Cl.N=C(N)c1ccc(-c2[nH]c3cc(C(=N)N)ccc3c2CC(O)CO)cc1 (centres unmarked)
22,> 250,COC(=O)C(CCCN)NC(=O)Cc1c(-c2ccc(C(=N)N)cc2)[nH]c2cc(C(=N)N)ccc12.Cl.Cl (centres unmarked)
23,> 250,Cl.Cl.N=C(N)c1ccc(-c2[nH]c3cc(C(=N)N)ccc3c2CC(=O)O)cc1
24,> 320,Cl.Cl.N=C(N)c1ccc(-c2cc3ccc(C(=N)N)cc3[nH]2)c(OCC(O)CO)c1 (centres unmarked)
25,> 300,Cl.Cl.O=C(O)Cc1c(-c2ccc(C3=NCCN3)cc2)[nH]c2cc(C3=NCCN3)ccc12

row,melting point [°C],Compound
1,> 250,CCSCCOC(=O)Cc1c(-c2ccc(C(=N)N)cc2)[nH]c2cc(C(=N)N)ccc12.Cl.Cl
2,> 270,CCCCOC(=O)Cc1c(-c2ccc(C(=N)N)cc2)[nH]c2cc(C(=N)N)ccc12.Cl.Cl
3,> 260,COC(=O)C(CCCCN)NC(=O)Cc1c(-c2ccc(C(=N)N)cc2)[nH]c2cc(C(=N)N)ccc12.Cl.Cl (centres unmarked)
4,> 300,Cl.Cl.O=CCc1c(-c2ccc(C3=NCCN3)cc2)[nH]c2cc(C3=NCCN3)ccc12
5,> 260,CC(C(=O)O)c1c(-c2ccc(C(=N)N)cc2)[nH]c2cc(C(=N)N)ccc12.Cl.Cl (centres unmarked)
6,> 250,COC(=O)C=Cc1ccc(Cc2c(-c3ccc(C(=N)N)cc3)[nH]c3cc(C(=N)N)ccc23)cc1.Cl.Cl
7,> 250,Cl.Cl.N#CCCOC(=O)Cc1c(-c2ccc(C(=N)N)cc2)[nH]c2cc(C(=N)N)ccc12
8,240,CC(C)OC(=O)C(C)Oc1cc(C(=N)N)ccc1-c1cc2ccc(C(=N)N)cc2[nH]1.Cl.Cl (centres unmarked)
9,> 250,COC(=O)C(Cc1ccccc1)NCCc1c(-c2ccc(C(=N)N)cc2)[nH]c2cc(C(=N)N)ccc12.Cl.Cl (centres unmarked)
10,> 250,C=CCOC(=O)Cc1c(-c2ccc(C(=N)N)cc2)[nH]c2cc(C(=N)N)ccc12.Cl.Cl
11,282,CNC(=N)c1ccc(-c2cc3ccc(C(=N)NC)cc3[nH]2)cc1.Cl.Cl
12,> 250,COC(=O)CC(NCCc1c(-c2ccc(C(=N)N)cc2)[nH]c2cc(C(=N)N)ccc12)C(=O)OC.Cl.Cl (centres unmarked)
13,> 250,Cl.Cl.N=C(N)c1ccc(-c2[nH]c3cc(C(=N)N)ccc3c2CCNCC(=O)O)cc1
14,> 250,Cl.Cl.N=C(N)c1ccc(-c2[nH]c3cc(C(=N)N)ccc3c2CC(=O)OCCO)cc1
15,> 250,Cl.Cl.N=C(N)c1ccc(-c2[nH]c3cc(C(=N)N)ccc3c2CC(=O)OCCOCCO)cc1
16,207 to 212,Cl.Cl.N=C(N)c1ccc(-c2[nH]c3cc(C(=N)N)ccc3c2CC(=O)NCC(=O)NC(CCC(=O)OCc2ccccc2)C(=O)OCc2ccccc2)cc1 (centres unmarked)
17,230 to 235,COC(=O)C(CCCNC(=O)OCc1ccccc1)NC(=O)Cc1c(-c2ccc(C(=N)N)cc2)[nH]c2cc(C(=N)N)ccc12.Cl.Cl (centres unmarked)
18,> 250,COC(=O)CCNCCc1c(-c2ccc(C(=N)N)cc2)[nH]c2cc(C(=N)N)ccc12.Cl.Cl
19,> 250,COC(=O)C(NCCc1c(-c2ccc(C(=N)N)cc2)[nH]c2cc(C(=N)N)ccc12)C(C)C.Cl.Cl (centres unmarked)
20,> 250,COC(=O)c1cccc(Cc2c(-c3ccc(C(=N)N)cc3)[nH]c3cc(C(=N)N)ccc23)c1.Cl.Cl
21,> 250,COC(=O)C(C)NCCc1c(-c2ccc(C(=N)N)cc2)[nH]c2cc(C(=N)N)ccc12.Cl.Cl (centres unmarked)
22,> 250,COc1cc(C(=N)N)ccc1-c1cc2ccc(C(=N)N)cc2[nH]1.Cl.Cl
23,> 250,Cl.Cl.N=C(N)c1ccc(-c2[nH]c3cc(C(=N)N)ccc3c2CC(=O)OCC2CCCCO2)cc1 (centres unmarked)
24,> 250,Cl.Cl.N=C(N)c1ccc(-c2[nH]c3cc(C(=N)N)ccc3c2CC(=O)OCC(O)CO)cc1 (centres unmarked)
25,> 250,Cl.Cl.Fc1cc2cc(-c3ccc(C4=NCCN4)cc3)[nH]c2cc1C1=NCCN1
